Test results taken from ChEMBL document CHEMBL3046635, “Synthesis and Herbicidal Activity of New Pyrazole-4-carboxamide Derivatives” (J Pestic Sci, 2004).
Active and inactive are the calls of the source. Unless noted, the rule behind the calls is not given here.

Key:
Echinochloa oryzicola [1] = assay: Pre-emergence herbicidal activity against Echinochloa oryzicola assessed as bleaching of stem/leaf parts; format: functional, organism-based
Ammannia multiflora [2] = assay: Post-emergence herbicidal activity against Ammannia multiflora assessed as bleaching of stem/leaf parts; format: functional, organism-based; also: test concentration or dose not given here
Eleocharis acicularis [3] = assay: Post-emergence herbicidal activity against Eleocharis acicularis assessed as bleaching of stem/leaf parts; format: functional, organism-based; also: test concentration or dose not given here
Pontederia vaginalis [4] = assay: Pre-emergence herbicidal activity against Monochoria vaginalis at 500 g a.i/ha measured after 14 days; format: functional, organism-based
Pontederia vaginalis [5] = assay: Post-emergence herbicidal activity against Monochoria vaginalis assessed as bleaching of stem/leaf parts; format: functional, organism-based; also: test concentration or dose not given here
Echinochloa oryzicola [6] = assay: Pre-emergence herbicidal activity against Echinochloa oryzicola at 500 g a.i/ha measured after 14 days; format: functional, organism-based
[7] = test system: Schoenoplectiella juncoides; assay: Pre-emergence herbicidal activity against Schoenoplectiella juncoides at 100 g a.i/ha measured after 14 days; format: functional, organism-based
Ammannia multiflora [8] = assay: Pre-emergence herbicidal activity against Ammannia multiflora at 500 g a.i/ha measured after 14 days; format: functional, organism-based
Ammannia multiflora [9] = assay: Pre-emergence herbicidal activity against Ammannia multiflora assessed as bleaching of stem/leaf parts; format: functional, organism-based
Ammannia multiflora [10] = assay: Pre-emergence herbicidal activity against Ammannia multiflora at 100 g a.i/ha measured after 14 days; format: functional, organism-based
Elatine triandra [11] = assay: Pre-emergence herbicidal activity against Elatine triandra at 500 g a.i/ha measured after 14 days; format: functional, organism-based
[12] = test system: Schoenoplectiella juncoides; assay: Post-emergence herbicidal activity against Schoenoplectiella juncoides assessed as bleaching of stem/leaf parts; format: functional, organism-based; also: test concentration or dose not given here
Cyperus difformis [13] = assay: Pre-emergence herbicidal activity against Cyperus difformis at 500 g a.i/ha measured after 14 days; format: functional, organism-based
Elatine triandra [14] = assay: Pre-emergence herbicidal activity against Elatine triandra at 100 g a.i/ha measured after 14 days; format: functional, organism-based
[15] = test system: Schoenoplectiella juncoides; assay: Pre-emergence herbicidal activity against Schoenoplectiella juncoides at 500 g a.i/ha measured after 14 days; format: functional, organism-based
Rotala indica [16] = assay: Pre-emergence herbicidal activity against Rotala indica at 100 g a.i/ha measured after 14 days; format: functional, organism-based
Lindernia procumbens [17] = assay: Pre-emergence herbicidal activity against Lindernia procumbens at 500 g a.i/ha measured after 14 days; format: functional, organism-based
Cyperus difformis [18] = assay: Pre-emergence herbicidal activity against Cyperus difformis assessed as bleaching of stem/leaf parts; format: functional, organism-based
Eleocharis acicularis [19] = assay: Pre-emergence herbicidal activity against Eleocharis acicularis at 100 g a.i/ha measured after 14 days; format: functional, organism-based
Echinochloa oryzicola [20] = assay: Post-emergence herbicidal activity against Echinochloa oryzicola assessed as bleaching of stem/leaf parts; format: functional, organism-based; also: test concentration or dose not given here
Pontederia vaginalis [21] = assay: Pre-emergence herbicidal activity against Monochoria vaginalis at 100 g a.i/ha measured after 14 days; format: functional, organism-based
Oryza sativa [22] = assay: Phytotoxicity against Oryza sativa cv. Koshihikari (rice) at 100 g a.i/ha measured after 14 days; format: organism-based; conditions: in vivo, 336 h
Eleocharis acicularis [23] = assay: Pre-emergence herbicidal activity against Eleocharis acicularis assessed as bleaching of stem/leaf parts; format: functional, organism-based
[24] = test system: Schoenoplectiella juncoides; assay: Pre-emergence herbicidal activity against Schoenoplectiella juncoides assessed as bleaching of stem/leaf parts; format: functional, organism-based
Lindernia procumbens [25] = assay: Pre-emergence herbicidal activity against Lindernia procumbens at 100 g a.i/ha measured after 14 days; format: functional, organism-based
Rotala indica [26] = assay: Pre-emergence herbicidal activity against Rotala indica at 500 g a.i/ha measured after 14 days; format: functional, organism-based
Rotala indica [27] = assay: Post-emergence herbicidal activity against Rotala indica assessed as bleaching of stem/leaf parts; format: functional, organism-based; also: test concentration or dose not given here
Lindernia procumbens [28] = assay: Post-emergence herbicidal activity against Lindernia procumbens assessed as bleaching of stem/leaf parts; format: functional, organism-based; also: test concentration or dose not given here
Echinochloa oryzicola [29] = assay: Pre-emergence herbicidal activity against Echinochloa oryzicola at 100 g a.i/ha measured after 14 days; format: functional, organism-based
Elatine triandra [30] = assay: Pre-emergence herbicidal activity against Elatine triandra assessed as bleaching of stem/leaf parts; format: functional, organism-based
Pontederia vaginalis [31] = assay: Pre-emergence herbicidal activity against Monochoria vaginalis assessed as bleaching of stem/leaf parts; format: functional, organism-based
Lindernia procumbens [32] = assay: Pre-emergence herbicidal activity against Lindernia procumbens assessed as bleaching of stem/leaf parts; format: functional, organism-based
Cyperus difformis [33] = assay: Pre-emergence herbicidal activity against Cyperus difformis at 100 g a.i/ha measured after 14 days; format: functional, organism-based
Rotala indica [34] = assay: Pre-emergence herbicidal activity against Rotala indica assessed as bleaching of stem/leaf parts; format: functional, organism-based
Oryza sativa [35] = assay: Phytotoxicity against Oryza sativa cv. Koshihikari (rice) at 500 g a.i/ha measured after 14 days; format: organism-based; conditions: in vivo, 336 h
Elatine triandra [36] = assay: Post-emergence herbicidal activity against Elatine triandra assessed as bleaching of stem/leaf parts; format: functional, organism-based; also: test concentration or dose not given here
Cyperus difformis [37] = assay: Post-emergence herbicidal activity against Cyperus difformis assessed as bleaching of stem/leaf parts; format: functional, organism-based; also: test concentration or dose not given here
Eleocharis acicularis [38] = assay: Pre-emergence herbicidal activity against Eleocharis acicularis at 500 g a.i/ha measured after 14 days; format: functional, organism-based

In the case of `Cn1cc(C(=O)NOc2cccc(Cl)c2)c(OCc2cccc(C(F)(F)F)c2)n1`, the Activity (Echinochloa oryzicola [1]) is reported as “Active”, the Activity (Ammannia multiflora [2]) is reported as “Active” and the Activity (Eleocharis acicularis [3]) is reported as “Active”. The Activity (Pontederia vaginalis [4]) was “Active”, the Activity (Pontederia vaginalis [5]) was “Active” and the Activity (Echinochloa oryzicola [6]) was “Active”. For the same compound, the Activity [7] was “Active”, the Activity (Ammannia multiflora [8]) was “Active” and the Activity (Ammannia multiflora [9]) was “Active”. For the same compound, the Activity (Ammannia multiflora [10]) was “Active”, the Activity (Elatine triandra [11]) was “Active” and the Activity [12] was “Active”. The Activity (Cyperus difformis [13]) was “Active”, the Activity (Elatine triandra [14]) was “Active” and the Activity [15] was “Active”. The Activity (Rotala indica [16]) was “Active”, the Activity (Lindernia procumbens [17]) was “Active” and the Activity (Cyperus difformis [18]) was “Active”. The Activity (Eleocharis acicularis [19]) was “Active”, the Activity (Echinochloa oryzicola [20]) was “Active” and the Activity (Pontederia vaginalis [21]) was “Active”. For the same compound, the Activity (Oryza sativa [22]) was “Non-toxic”, the Activity (Eleocharis acicularis [23]) was “Active” and the Activity [24] was “Active”. The Activity (Lindernia procumbens [25]) was “Active”, the Activity (Rotala indica [26]) was “Active” and the Activity (Rotala indica [27]) was “Active”. For the same compound, the Activity (Lindernia procumbens [28]) was “Active”, the Activity (Echinochloa oryzicola [29]) was “Active” and the Activity (Elatine triandra [30]) was “Active”. The Activity (Pontederia vaginalis [31]) was “Active”, the Activity (Lindernia procumbens [32]) was “Active” and the Activity (Cyperus difformis [33]) was “Active”. For the same compound, the Activity (Rotala indica [34]) was “Active”, the Activity (Oryza sativa [35]) was “Non-toxic” and the Activity (Elatine triandra [36]) was “Active”. The Activity (Cyperus difformis [37]) was “Active” and the Activity (Eleocharis acicularis [38]) was “Active”.
In the case of `Cn1cc(C(=O)NOc2ccccc2Cl)c(OCc2cccc(C(F)(F)F)c2)n1`, the Activity (Echinochloa oryzicola [1]) is reported as “Active”, the Activity (Ammannia multiflora [2]) is reported as “Active” and the Activity (Eleocharis acicularis [3]) is reported as “Active”. The Activity (Pontederia vaginalis [4]) was “Active”, the Activity (Pontederia vaginalis [5]) was “Active” and the Activity (Echinochloa oryzicola [6]) was “Active”. For the same compound, the Activity [7] was “inactive”, the Activity (Ammannia multiflora [8]) was “Active” and the Activity (Ammannia multiflora [9]) was “Active”. The Activity (Ammannia multiflora [10]) was “Active”, the Activity (Elatine triandra [11]) was “Active” and the Activity [12] was “Active”. The Activity (Cyperus difformis [13]) was “Active”, the Activity (Elatine triandra [14]) was “Active” and the Activity [15] was “Active”. The Activity (Rotala indica [16]) was “Active”, the Activity (Lindernia procumbens [17]) was “Active” and the Activity (Cyperus difformis [18]) was “Active”. The Activity (Eleocharis acicularis [19]) was “Active”, the Activity (Echinochloa oryzicola [20]) was “Active” and the Activity (Pontederia vaginalis [21]) was “Active”. For the same compound, the Activity (Oryza sativa [22]) was “Non-toxic”, the Activity (Eleocharis acicularis [23]) was “Active” and the Activity [24] was “Active”. The Activity (Lindernia procumbens [25]) was “Active”, the Activity (Rotala indica [26]) was “Active” and the Activity (Rotala indica [27]) was “Active”. The Activity (Lindernia procumbens [28]) was “Active”, the Activity (Echinochloa oryzicola [29]) was “inactive” and the Activity (Elatine triandra [30]) was “Active”. The Activity (Pontederia vaginalis [31]) was “Active”, the Activity (Lindernia procumbens [32]) was “Active” and the Activity (Cyperus difformis [33]) was “Active”. For the same compound, the Activity (Rotala indica [34]) was “Active”, the Activity (Oryza sativa [35]) was “Non-toxic” and the Activity (Elatine triandra [36]) was “Active”. For the same compound, the Activity (Cyperus difformis [37]) was “Active” and the Activity (Eleocharis acicularis [38]) was “Active”.
`CCCN(OCC)C(=O)c1cn(C)nc1OCc1cccc(C(F)(F)F)c1` was tested, and the Activity (Echinochloa oryzicola [1]) was “Active”, the Activity (Ammannia multiflora [2]) was “Active” and the Activity (Eleocharis acicularis [3]) was “Active”. The Activity (Pontederia vaginalis [4]) was “Active”, the Activity (Pontederia vaginalis [5]) was “Active” and the Activity (Echinochloa oryzicola [6]) was “Active”. The Activity [7] was “inactive”, the Activity (Ammannia multiflora [8]) was “Active” and the Activity (Ammannia multiflora [9]) was “Active”. The Activity (Ammannia multiflora [10]) was “Active”, the Activity (Elatine triandra [11]) was “Active” and the Activity [12] was “Active”. For the same compound, the Activity (Cyperus difformis [13]) was “Active”, the Activity (Elatine triandra [14]) was “Active” and the Activity [15] was “inactive”. For the same compound, the Activity (Rotala indica [16]) was “Active”, the Activity (Lindernia procumbens [17]) was “Active” and the Activity (Cyperus difformis [18]) was “Active”. For the same compound, the Activity (Eleocharis acicularis [19]) was “inactive”, the Activity (Echinochloa oryzicola [20]) was “Active” and the Activity (Pontederia vaginalis [21]) was “inactive”. The Activity (Oryza sativa [22]) was “Non-toxic”, the Activity (Eleocharis acicularis [23]) was “Active” and the Activity [24] was “Active”. The Activity (Lindernia procumbens [25]) was “Active”, the Activity (Rotala indica [26]) was “Active” and the Activity (Rotala indica [27]) was “Active”. The Activity (Lindernia procumbens [28]) was “Active”, the Activity (Echinochloa oryzicola [29]) was “Active” and the Activity (Elatine triandra [30]) was “Active”. The Activity (Pontederia vaginalis [31]) was “Active”, the Activity (Lindernia procumbens [32]) was “Active” and the Activity (Cyperus difformis [33]) was “Active”. For the same compound, the Activity (Rotala indica [34]) was “Active”, the Activity (Oryza sativa [35]) was “Non-toxic” and the Activity (Elatine triandra [36]) was “Active”. The Activity (Cyperus difformis [37]) was “Active” and the Activity (Eleocharis acicularis [38]) was “Active”.
